Source: article PMC2579677 (British Journal of Cancer, 2008)
Values joined by “and” are separate entries in the source; they are usually repeats but may differ in a detail not shown here. Equal values may be shown once. Read-outs that look alike come from different tables or passages of the source.

Experiments:
[1] = test system: bFGF-stimulated angiogenesis in Matrigel plugs; design: method as in Chander et al, 2007; conditions: ref Chander et al, 2007, cited from earlier work
[2] = cited from earlier work
[3] = test system: MDA-MB-231 xenograft tumours; test: MDA-MB-231 xenograft tumour growth inhibition; conditions: 21 days
[4] = test system: bFGF-stimulated angiogenesis in Matrigel plugs; test: In vivo angiogenesis assay (bFGF-supplemented Matrigel plug, FITC-dextran); design: species or system C57BL/6J mice; conditions: for reduction of level of angiogenesis: 10 mg kg^−1 orally daily for four days, compared with bFGF-only
Protocol: The antiangiogenic potential of STX243 was assessed using a modified Matrigel plug assay as described earlier ([Passaniti et al, 1992]; [Prewett et al, 1999]; [Chander et al, 2007]). The female C57BL/6J mice used in this study were obtained from Harlan (Bicester). The mice were anaesthetised, placed on a heated pad (37°C) and 0.5 ml of ice-cold Matrigel supplemented with 500 ng of basic fibroblast growth factor (bFGF) was injected subcutaneously into the flanks of each mouse. Control mice received Matrigel without bFGF. The mice were subsequently weighed before returning the mice to their isolator. After 24 h of Matrigel injection, the mice were placed into the following treatment groups: control, bFGF-only, bFGF plus STX140 (10 mg kg^−1, orally) and bFGF plus STX243 (10, 20 or 40 mg kg^−1, orally). Control and bFGF-only animals were dosed orally with vehicle (10% THF, 90% PG). The animals were dosed every day for four days with five animals per treatment group. Quantification of the blood vessels within the Matrigel plugs was facilitated through the intravenous injection of 100 μl of 0.25 mg ml^−1 FITC-dextran (250 000 molecular weight) seven days after the Matrigel injection. FITC-dextran injection allows for visualisation of the blood vessels that has been recently formed in the matrigel plugs. The animals were killed 20 min after the injection of the FITC-dextran. The mice were subsequently weighed and the Matrigel plugs were removed. The Matrigel plugs were photographed and subsequently dissolved in 1 ml Dispase reagent for 16 h at 37°C. The resulting mixture was centrifuged at 15 700 g (20°C) for 30 s. The fluorescence of the supernatant was measured using a FLUOstar OPTIMA fluorimeter (BMG Labtech Ltd., Aylesbury, Bucks, UK). The excitation and emission wavelengths used were 480 and 520 nm, respectively. The fluorescence of the samples was quantitated using a standard curve of FITC-dextran (0.4–25 μg ml^−1).

[5] = test system: MCF-7dox40 xenograft tumours; design: method as in Newman et al, 2008; conditions: ref Newman et al, 2008; cited from earlier work
[6] = design: method as in Foster et al, 2008; conditions: single oral administration; ref Foster et al, 2008; cited from earlier work
[7] = test system: human umbilical vein endothelial cell (HUVEC); design: method as in Newman et al, 2004; conditions: ref Newman et al, 2004; cited from earlier work
range of cell lines = conditions: 2003, 2005, cited from earlier work; for difference in antiproliferative activity relative to 2-MeOE2: some investigations, ref Day et al, Wood et al, 2004, Leese et al
HUVECs = test: In vitro angiogenesis kit: VEGF-stimulated vessel formation in HUVEC/fibroblast coculture; type: cell-based, human; conditions: VEGF 2 ng ml^−1 stimulated, day 11
Protocol: The effects of the compounds on in vitro vessel formation were assessed using an angiogenesis kit (TCS Cellworks, Claydon, UK). For this assay, HUVECs (obtained from TCS Cellworks) were cultured in a 24-well plate within a matrix of human diploid fibroblasts of dermal origin in an optimised medium (TCS Cellworks) supplemented with 2 ng ml^−1 vascular endothelial growth factor (VEGF). The cocultured cells were incubated throughout the experiment at 37°C under 5% CO2 in a humidified incubator. On day 1, the culture medium was removed and replaced with medium containing the compounds under investigation. The vehicle used for the dilution of compound was tetrahydrofuran (THF). The final concentration of THF in the medium was 0.001 (100 nM dose) to 0.00025% (25 nM dose). On days 4, 7 and 9, the medium was replaced with fresh medium containing the compounds. Each compound was tested in triplicate. On day 11, the cells were washed (phosphate-buffered saline) and 70% ethanol (1 ml) was added to each well for 30 min to fix the cells. After fixation, the cells were washed with blocking buffer (1 ml, phosphate-buffered saline+1% bovine serum albumin) and stained for CD31 according to the manufacturer's instructions (TCS Cellworks).
The extent of vessel formation was then quantified using a variation of an earlier described technique ([Newman et al, 2004]). Briefly, using a high-resolution transmissive scanner (ScanMaker 9800, Microtek, Willich, Germany), each well was scanned and saved as a tagged image format (TIF) file in Photoshop (Adobe, San Jose, CA, USA). The image was then converted to a black and white image using the photocopy filter in Photoshop ( × 2, 10 detail and 25 darkness) and saved as an uncompressed TIF file. The files were transferred to the AngioSys software (TCS Cellworks), all background and non-tubule-like structures were removed using erode ( × 1) and clean (100 pixels) functions, and the number of pixels representing vessels was counted. This technique was validated (data not shown) against the quantification techniques as described earlier ([Newman et al, 2004]).

[8] = test system: MCF-7wt xenograft tumours; test: MCF-7wt xenograft tumour growth inhibition; type: in vivo, MF-1 nu/nu mice; conditions: 28 days, compared with vehicle-only
[9] = test system: MCF-7dox40 xenograft tumours; test: Paclitaxel-resistant MCF-7dox40 xenograft tumour growth inhibition; type: in vivo, MF-1 nu/nu mice; conditions: 28 days
[10] = Pharmacokinetics of STX243 in plasma (HPLC); type: in vivo, female Wistar rats; conditions: for clearance / MRT / Vd / half-life / Cmax: female, Wistar; for clearance / MRT / Vd / half-life: rat, plasma; for clearance: read-out: Cl (total body clearance) (converted); for MRT: read-out: MRT (mean residence time); for Vd: read-out: VD (volume of distribution); for half-life: read-out: t1/2β (elimination half-life) (converted)
[11] = 40 mg kg^−1 orally daily, compared with vehicle-only

Compound: COc1cc2c(cc1O)CC[C@@H]1[C@@H]2CC[C@]2(C)[C@@H](O)CC[C@@H]12 [2-MeOE2, 2-methoxyoestradiol, reference compound]
- angiogenesis inhibition in Matrigel plugs ([1]; 10 mg kg^−1 dose): no significant inhibition
- angiogenesis inhibition in Matrigel plugs ([1]; 50 mg kg^−1 orally): Angiogenesis inhibition was only observed
- plasma concentration 1 h after intravenous dosing ([2]; 10 mg kg^−1 intravenous, HPLC, ref Ireson et al, 2004): below the LOD
- tumour growth inhibition [3, 11]: No significant tumour inhibition
- tumour growth inhibition ([3]; 75 mg kg^−1 orally daily): No significant tumour inhibition

Compound: COc1cc2c(cc1OS(N)(=O)=O)CCC1C2CC[C@@]2(C)C1CC[C@@H]2OS(N)(=O)=O (stereo partly drawn) [STX140, 2-MeOE2-3,17-O,O-bis-sulphamate]
- reduction of level of angiogenesis [4]: 72% and 72±5%
- inhibition of growth of MCF-7dox40 tumours [5]: capable of inhibiting the growth of MCF-7dox40 tumours
- maximum-tolerated dose [6]: 150 mg/kg
- effectiveness at inhibiting HUVEC proliferation relative to 2-MeOE2 [7]: 60 fold
- difference in antiproliferative activity relative to 2-MeOE2 (range of cell lines): 10 fold
- maximum concentration in plasma ([2]; rat, in vivo, iv): 6.6 µg/mL
- oral bioavailability ([2]; rat, in vivo, po, 10 mg/kg): 85%
- maximum concentration in plasma ([2]; rat, in vivo, po): 3.9 µg/mL
- time of peak plasma concentration ([2]; rat, in vivo, po): 3 h
- tumour growth inhibition ([3]; 20 mg kg^−1 orally daily, compared with vehicle-only): 63% and 63±7%

Compound: CCc1cc2c(cc1OS(N)(=O)=O)CCC1C2CC[C@@]2(C)C1CC[C@@H]2OS(N)(=O)=O (stereo partly drawn) [STX243, 2-ethyloestradiol-3,17-O,O-bis-sulphamate]
- vessel formation (HUVECs; 25 nM): only a small inhibition
- vessel formation (HUVECs; 50 nM): significant inhibition of vessel formation
- vessel (tubule) formation (HUVECs; 100 nM): completely blocked all tubule formation
- tumour growth inhibition ([8]; 40 mg kg^−1 orally daily): 87±5%
- tumour growth inhibition [9, 11]: 74±4%
- reduction of level of angiogenesis [4]: 50% and 50±6%
- growth of new blood vessels in Matrigel plugs ([4]; all doses investigated (10, 20 or 40 mg kg^−1 orally), P<0.001 vs bFGF-only): significantly inhibited
- AUC ([10]; Intravenous 10 mg kg^−1): 42 hμg ml^−1
- AUMC ([10]; Intravenous 10 mg kg^−1): 267 h^2μg ml^−1
- AUC ([10]; Intravenous 40 mg kg^−1): 126 hμg ml^−1
- AUMC ([10]; Intravenous 40 mg kg^−1): 558 h^2μg ml^−1
- AUC ([10]; Oral 10 mg kg^−1): 13 hμg ml^−1
- AUMC ([10]; Oral 10 mg kg^−1): 219 h^2μg ml^−1
- Bioavailability (% F) ([10]; Oral 10 mg kg^−1): 31 % F and 30.7 % F
- time of highest plasma concentration ([10]; Oral 10 mg kg^−1): 4 h
- AUC ([10]; Oral 40 mg kg^−1): 23 hμg ml^−1
- AUMC ([10]; Oral 40 mg kg^−1): 157 h^2μg ml^−1
- Bioavailability (% F) ([10]; Oral 40 mg kg^−1): 18 % F
- time of highest plasma concentration ([10]; Oral 40 mg kg^−1): 8 h
- clearance ([10]; Intravenous 10 mg kg^−1): 3.92 mL/min/kg
- MRT ([10]; Intravenous 10 mg kg^−1): 6.28 h
- Vd ([10]; Intravenous 10 mg kg^−1): 1.48 L/kg
- half-life ([10]; Intravenous 10 mg kg^−1): 4.78 h
- clearance ([10]; Intravenous 40 mg kg^−1): 5.3 mL/min/kg
- MRT ([10]; Intravenous 40 mg kg^−1): 4.44 h
- Vd ([10]; Intravenous 40 mg kg^−1): 1.41 L/kg
- half-life ([10]; Intravenous 40 mg kg^−1): 3.18 h
- MRT ([10]; Oral 10 mg kg^−1): 16.8 h
- half-life ([10]; Oral 10 mg kg^−1): 11.4 h
- MRT ([10]; Oral 40 mg kg^−1): 6.93 h
- half-life ([10]; Oral 40 mg kg^−1): 1.88 h
- Cmax ([10]; Intravenous 10 mg kg^−1, rat plasma): 13100 ng/mL
- Cmax ([10]; Intravenous 40 mg kg^−1, rat plasma): 44800 ng/mL
- Cmax ([10]; Oral 10 mg kg^−1, rat plasma): 640 ng/mL
- Cmax ([10]; Oral 40 mg kg^−1, rat plasma): 1760 ng/mL
- metabolism (to putative metabolite STX1813) in plasma ([10]; intravenous or oral, 10 or 40 mg kg^−1, HPLC): no significant metabolism
- maximum-tolerated dose [6]: 300 mg/kg
- potency at inhibiting cell proliferation relative to STX140 (range of cell lines; range of cell lines, ref Suzuki et al, Raobaikady et al): equipotent to STX140
- difference in antiproliferative activity relative to 2-MeOE2 (range of cell lines): 10 fold
- tumour growth inhibition [3, 11]: 72% and 72±13%

Compound: CC(=O)O[C@H]1C(=O)[C@@]2(C)[C@H]([C@H](OC(=O)c3ccccc3)[C@]3(O)C[C@H](OC(=O)[C@H](O)[C@@H](NC(=O)c4ccccc4)c4ccccc4)C(C)=C1C3(C)C)[C@]1(OC(C)=O)CO[C@@H]1C[C@@H]2O [paclitaxel, reference compound]
- tumour growth inhibition ([8]; 15 mg kg^−1 intravenous weekly): 87±6%
- tumour growth inhibition ([9]; 15 mg kg^−1 intravenous weekly): only STX243 was capable of significantly inhibiting the growth
